Data reported in patent US4698350A, “1-ethyl-6-fluoro-1,4-dihydro- 7-(2,6-dimethyl-4-pyridinyl)-4-oxo-3-quinolinecarboxylic acid and antibacterial use thereof” (Sterling Drug Inc., priority 1984, dated 1987).
Values after ≈ are worked out from the molar mass of the structure shown. Like-named read-outs stand apart in the source and are kept apart here.

Legend:
S. edidermidis = assay: In vitro MIC/MBC summary (Table II); format: cell-based, S. epidermidis; conditions: Staphylococcus epidermidis, 5 S. edidermidis strains
Procedure: (§1) Win 52,522 and Win 35,439 were solubilized in 0.1 ml of 0.5 N NaOH/mg of compound and diluted in sterile distilled water to 160 mcg/ml. Vancomycin and methicillin were solubilized in sterile distilled water to 1250 mcg/ml of base compound. The stock solutions were sterilized by filtration through membrane filters with a 0.45 μm pore size.
(§2) The bacterial cultures listed in Table I (hereinbelow) were grown overnight at 37° C. in MHB for all cultures except the Streptococcus strains. These were grown in BHI+10% NHS. The overnight broth cultures were adjusted to an optical density of 0.10 (650 nm, B L Spectronic 20) in sterile distilled water and subsequently diluted to 6.7×10^6 cells/ml in MHB or BHI+1% NHS.
(§3) Serial two-fold dilutions of the compound solutions were prepared in MHB (or in BHI+1% NHS for tests with Streptococci) and dispensed into 96-well microtiter trays in a volume of 0.1 ml/well using a Sandy Springs (Bellco Glass Co.) dispenser. The trays were then inoculated with 0.0015 ml of a suspension containing 6.7×10^6 cells/ml of the appropriate inoculum using a MIC-2000 inoculator (Dynatech Corp.) resulting in a final inoculum of approximately 1×10^4 cells/well or 1×10^5 cells/ml. The trays were incubated at 37° C. for 18-20 hours and the minimal inhibitory concentration (MIC), defined as the lowest concentration of compound to inhibit visible bacterial growth, was recorded.
(§4) After the MIC values were recorded, the contents in the microtiter trays were thoroughly mixed on a Bellco Mini-orbital Shaker (Bellco Glass Co.) for 3 min. at a setting of 8. A portion (0.0015 ml) from each well was then transferred via an MIC-2000 inoculator to plates containing MHA or BHI agar+10% NHS. The plates were incubated at 37° C. for 18-20 hrs. The minimal bactericidal concentration (MBC), defined as the lowest concentration of compound that prevented the formation of a recognizable colony on the agar surface, was recorded.

Streptococcus sp. = assay: In vitro MIC/MBC summary (Table II); format: cell-based; conditions: 9 Streptococcus sp. strains
Procedure: as §1, §2, §3, §4

S. aureus = assay: In vitro MIC/MBC summary (Table II); format: cell-based; conditions: Staphylococcus aureus
Procedure: as §1, §2, §3, §4

[1] = tested on: Staphylococcus aureus Smith; assay: Mouse protection test, S. aureus Smith infection, single dose; format: in vivo, ICR mice; Staphylococcus aureus; conditions: single dose; for ED50: Staphylococcus aureus, 168 h, read-out: Protective Dose 50% (95% Confidence Limits)
Procedure: (§5) ICR mice, female, 18-20 grams each.
(§6) Solutions of Win 52,522 and Win 35,439 were prepared by dissolving the appropriate weight of drug in 0.3 to 0.4 ml of 1 N NaOH and then bringing the solutions to the desired volume with distilled water. Methicillin and vancomycin were dissolved directly in distilled water.
Two and one-half ml of pool were added to 247.5 ml of 5% gastric mucin to provide the test inoculum containing 2.1×10^4 cells/ml.
(§7) Mice were inoculated intraperitoneally with 0.5 ml of the bacterial test inoculum.
1. Single dose test--Mice were medicated subcutaneously or orally once (0.5 ml) one-half hour postinfection.
(§8) Deaths were recorded daily for seven days for all tests. Fifty percent protective dose values (PD50's) were calculated using probit analysis [SAS Users Guide: Statistics, 1982 Edition, SAS Institute, Inc., Cary, N.C.].

[2] = tested on: Staphylococcus aureus 39881 (Methicillin-resistant); assay: Mouse protection test, S. aureus 39881 (methicillin-resistant) infection; format: in vivo, ICR mice; Staphylococcus aureus; conditions: for Survivors/Total: two doses; for ED50: Staphylococcus aureus, 168 h, two doses one-half and four hours postinfection, read-out: Protective Dose 50% (95% Confidence Limits)
Procedure: as §5, §6
The culture was streaked onto three Brain Heart Infusion Agar plates and incubated 16 hours at 37° C. The cells were washed off each plate with five ml of saline and the cell suspension was shaken with glass beads for two minutes on a paint shaker. The suspension was diluted with saline so that a […] gave a 44% T reading on a B+L Spectronic 20 (650 nm) calibrated with saline. The stock suspension was diluted 1:24 (10 ml stock suspension+230 ml 5% mucin) to obtain the test inoculum containing 1.55×10^9 cells/ml.
as §7
Mice were medicated twice: at one-half and four hours postinfection. The drugs were administered by both subcutaneous (0.2 ml) and oral (0.5 ml) routes.
as §8

S. aureus 59-81 = assay: In vitro antibacterial MIC/MBC test; format: cell-based; conditions: Staphylococcus aureus, 5981, S. aureus 59-81
How it was run: (§9)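 Overnight cultures were adjusted by OD650 and diluted, then inoculated into serially diluted compound in MHB or, for streptococci, BHI+1% NHS at about 1×10^5 cells/ml. After 18-20 hours at 37° C. the MIC was read visually, and wells were replated on agar to obtain the MBC.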

S. faecalis (8043) = assay: In vitro antibacterial MIC/MBC test; format: cell-based; conditions: Enterococcus faecalis, ATCC8043, S. faecalis ATCC No. 8043
How it was run: as §9

S. pyogenes (89) = assay: In vitro antibacterial MIC/MBC test; format: cell-based; conditions: Streptococcus pyogenes, S. pyogenes SWRI No. 89
How it was run: as §9

S. pneumoniae Type III = assay: In vitro antibacterial MIC/MBC test; format: cell-based; conditions: Streptococcus pneumoniae, S. pneumoniae Type III
How it was run: as §9

S. epidermidis 1-5-H = assay: In vitro antibacterial MIC/MBC test; format: cell-based; conditions: Staphylococcus epidermidis, 15H, S. epidermidis 1-5-H
How it was run: as §9

S. pyogenes C203 = assay: In vitro antibacterial MIC/MBC test; format: cell-based; conditions: Streptococcus pyogenes, S. pyogenes C203
How it was run: as §9

S. pyogenes 7948-15 = assay: In vitro antibacterial MIC/MBC test; format: cell-based; conditions: Streptococcus pyogenes, 794815, S. pyogenes 7948-15
How it was run: as §9

Question: With `CCn1cc(C(=O)O)c(=O)c2ccc(-c3cc(C)nc(C)c3)cc21` [Win 35,439, 1-ethyl-1,4-dihydro-7-(2,6-dimethyl-4-pyridinyl)-4-oxo-3-quinolinecarboxylic acid] as the compound, how does the MBC (S. edidermidis; read-out: MBC 50%) read?
Answer: 0.25 µg/mL (≈ 0.776 µM)

Question: What about the MBC (S. edidermidis; read-out: MBC 90%) of the same compound?
Answer: 0.25 µg/mL (≈ 0.776 µM)

Question: What about the MBC (S. edidermidis; read-out: MBC Range) of the same compound?
Answer: 0.25 to 0.5 µg/mL (≈ 0.776 to 1.55 µM)

Question: And the MIC50 (S. edidermidis; read-out: MIC 50%)?
Answer: 0.25 µg/mL (≈ 0.776 µM)

Question: And the MIC90 (S. edidermidis; read-out: MIC 90%)?
Answer: 0.25 µg/mL (≈ 0.776 µM)

Question: What about the MIC (S. edidermidis; read-out: MIC Range) of the same compound?
Answer: 0.25 to 0.5 µg/mL (≈ 0.776 to 1.55 µM)

Question: And the MBC (Streptococcus sp.; read-out: MBC 50%)?
Answer: 2 µg/mL (≈ 6.2 µM)

Question: What about the MBC (Streptococcus sp.; read-out: MBC 90%) of the same compound?
Answer: > 16 µg/mL

Question: And the MIC50 (Streptococcus sp.; read-out: MIC 50%)?
Answer: 2 µg/mL (≈ 6.2 µM)

Question: What about the MIC90 (Streptococcus sp.; read-out: MIC 90%) of the same compound?
Answer: 4 µg/mL (≈ 12.4 µM)

Question: And the MIC (Streptococcus sp.; read-out: MIC Range)?
Answer: 0.5 to 4 µg/mL (≈ 1.55 to 12.4 µM)

Question: What about the MBC (S. aureus; read-out: MBC 50%) of the same compound?
Answer: 0.25 µg/mL (≈ 0.776 µM)

Question: What about the MBC (S. aureus; read-out: MBC 90%) of the same compound?
Answer: 0.5 µg/mL (≈ 1.55 µM)

Question: And the MBC (S. aureus; read-out: MBC Range)?
Answer: 0.125 to 0.5 µg/mL (≈ 0.388 to 1.55 µM)

Question: And the MIC50 (S. aureus; 15 S. aureus strains, read-out: MIC 50%)?
Answer: 0.06 µg/mL (≈ 0.186 µM)

Question: What about the MIC90 (S. aureus; 15 S. aureus strains, read-out: MIC 90%) of the same compound?
Answer: 0.125 µg/mL (≈ 0.388 µM)

Question: What about the MIC (S. aureus; 15 S. aureus strains, read-out: MIC Range) of the same compound?
Answer: 0.03 to 0.125 µg/mL (≈ 0.0931 to 0.388 µM)

Question: What about the Survivors/Total ([1]; 0.39 mg/kg po) of the same compound?
Answer: 0/10

Question: What about the Survivors/Total ([1]; 0.78 mg/kg po) of the same compound?
Answer: 1/10

Question: What about the Survivors/Total ([1]; 0.78 mg/kg sc) of the same compound?
Answer: 1/10

Question: And the Survivors/Total ([1]; 1.56 mg/kg po)?
Answer: 0/10

Question: What about the Survivors/Total ([1]; 1.56 mg/kg sc) of the same compound?
Answer: 0/10

Question: What about the Survivors/Total ([1]; 3.13 mg/kg po) of the same compound?
Answer: 0/10

Question: What about the Survivors/Total ([1]; 3.13 mg/kg sc) of the same compound?
Answer: 6/10

Question: And the Survivors/Total ([1]; 6.25 mg/kg po)?
Answer: 7/10

Question: What about the Survivors/Total ([1]; 6.25 mg/kg sc) of the same compound?
Answer: 10/10

Question: What about the ED50 ([1]; po) of the same compound?
Answer: ~5.5 mg/kg

Question: And the ED50 ([1]; sc)?
Answer: 2.9 mg/kg

Question: What about the Survivors/Total ([2]; 1.56 mg/kg po) of the same compound?
Answer: 1/10

Question: What about the Survivors/Total ([2]; 1.56 mg/kg sc) of the same compound?
Answer: 0/10

Question: And the Survivors/Total ([2]; 3.13 mg/kg po)?
Answer: 0/10

Question: What about the Survivors/Total ([2]; 3.13 mg/kg sc) of the same compound?
Answer: 0/10

Question: And the Survivors/Total ([2]; 6.25 mg/kg po)?
Answer: 3/10

Question: And the Survivors/Total ([2]; 6.25 mg/kg sc)?
Answer: 9/10

Question: And the Survivors/Total ([2]; 12.5 mg/kg po)?
Answer: 10/10

Question: And the Survivors/Total ([2]; 12.5 mg/kg sc)?
Answer: 7/10

Question: And the ED50 ([2]; po)?
Answer: 7.2 mg/kg

Question: And the ED50 ([2]; sc)?
Answer: ~4.9 mg/kg

Question: And the MBC (S. aureus 59-81; read-out: MBC)?
Answer: 0.25 µg/mL (≈ 0.776 µM)

Question: What about the MIC (S. aureus 59-81; read-out: MIC) of the same compound?
Answer: 0.125 µg/mL (≈ 0.388 µM)

Question: What about the MBC (S. faecalis (8043); read-out: MBC) of the same compound?
Answer: 2 µg/mL (≈ 6.2 µM)

Question: And the MIC (S. faecalis (8043); read-out: MIC)?
Answer: 1 µg/mL (≈ 3.1 µM)

Question: And the MBC (S. pyogenes (89); read-out: MBC)?
Answer: > 16 µg/mL

Question: What about the MIC (S. pyogenes (89); read-out: MIC) of the same compound?
Answer: 4 µg/mL (≈ 12.4 µM)

Question: What about the MBC (S. pneumoniae Type III; read-out: MBC) of the same compound?
Answer: 4 µg/mL (≈ 12.4 µM)

Question: And the MIC (S. pneumoniae Type III; read-out: MIC)?
Answer: 4 µg/mL (≈ 12.4 µM)

Question: And the MBC (S. epidermidis 1-5-H; read-out: MBC)?
Answer: 0.25 µg/mL (≈ 0.776 µM)

Question: And the MIC (S. epidermidis 1-5-H; read-out: MIC)?
Answer: 0.25 µg/mL (≈ 0.776 µM)

Question: And the MBC (S. pyogenes C203; read-out: MBC)?
Answer: > 16 µg/mL

Question: And the MIC (S. pyogenes C203; read-out: MIC)?
Answer: 4 µg/mL (≈ 12.4 µM)

Question: What about the MBC (S. pyogenes 7948-15; read-out: MBC) of the same compound?
Answer: > 16 µg/mL

Question: What about the MIC (S. pyogenes 7948-15; read-out: MIC) of the same compound?
Answer: 4 µg/mL (≈ 12.4 µM)
